Results: US9334475B2, “Method for inducing erythropoietin-producing cell” (Kyoto University, priority 2012, dated 2016)

Legend:
[1] = test system: EPO-producing cells induced to differentiate from human iPS cells; assay: EPO production-promoting ability in Step 2 of differentiation of human iPS cells; type: cell-based; settings: Step 2, compared with IGF-2 (FIG. 4)
Method: (§1) Human iPS cells (201B6, 201B7, and 253G4) were obtained from Professor Yamanaka of Kyoto University, and cultured in accordance with a conventional method (Takahashi K, et al. Cell. 131: pp. 861 to 872). Using SNL cells (McMahon, A. P. and Bradley, A. (1990) Cell 62; pp. 1073 to 1085) as feeder cells, the iPS cells were cultured to 80 to 90% confluency on a 6 cm dish. The cells were then detached by adding a CTK solution and the feeder cells were removed, and 1 mL of Accutase™ was added to dissociate the iPS cells into single cells.
Subsequently, the iPS cells were suspended in an RPMI medium containing 10 μM Y-27632, 2% B27, and penicillin/streptomycin and then seeded in a Matrigel-coated 24-well plate at 250,000 cells/well. After adding 100 ng/mL Activin and 1 μM CHIR99021, the volume of medium was adjusted to 0.5 mL/well, and the cells were cultured for six days (Step 1). At this time, on Day 2, 0.5 mM NaB was added to the medium (without medium exchange), and on Day 3, the medium was exchanged for a medium containing 100 ng/mL A ctivin, 1 μM CHIR99021, and 0.5 mM NaB, and on Day 5, the medium was exchanged for a medium containing 100 ng/mL Activin and 1 μM CHIR99021. […]
In Step 2, the cells were analyzed after 18 days of culture. […]

[2] = test system: EPO-producing cells induced to differentiate from human iPS cells; assay: ELISA of extracellular EPO secretion by EPO-producing cells at various IGF-1 concentrations; type: cell-based
Method: as §1
Subsequently, the iPS cells were suspended in an RPMI medium containing 10 μM Y-27632, 2% B27, and penicillin/streptomycin and then seeded in a Matrigel-coated 24-well plate at 250,000 cells/well. After adding 100 ng/mL Activin and 1 μM CHIR99021, the volume of medium was adjusted to 0.5 mL/well, and the cells were cultured for six days (Step 1). At this time, on Day 2, 0.5 mM NaB was added to the medium (without medium exchange), and on Day 3, the medium was exchanged for a medium containing 100 ng/mL A ctivin, 1 μM CHIR99021, and 0.5 mM NaB, and on Day 5, the medium was exchanged for a medium containing 100 ng/mL Activin and 1 μM CHIR99021.
After six days of culture, the medium was replaced by a DMEM medium containing 1% DMSO, 50 ng/mL IGF-1, 20% KSR, 2 mM L-glutamine, nonessential amino acid (NEAA), 100 μM β-ME (2-mercaptoethanol), 50 mU/L penicillin, and 50 μg/L streptomycin, and the cells were cultured for a certain period of days (Step 2). During cell culture, the medium was exchanged every other day.
Subsequently, ELISA was performed to study whether the EPO protein expressed was secreted out of the cells. As a result, EPO protein was confirmed outside the cells. […] Further, as a result of studying the amount of IGF-1 added and the number of days of culture, the highest amount of EPO secretion was observed when the cells were cultured for 10 days at 50 ng/mL (FIG. 6). […]

For “IGF-1: IGF family gene product used as a growth factor in the Step 2 medium”, the EPO production-promoting ability [1] was “promote EPO production more potently than IGF-2”, the “days of culture in Step 2 giving the highest amount of EPO secretion” value ([2]; IGF-1 at 50 ng/mL (FIG. 6)) was 10 days and the “change in EPO secretion over time” value ([2]; IGF-1 at 100 ng/mL, Step 2 (FIG. 6)) was “an increasing trend of EPO secretion was confirmed up to Day 12”. For the same substance, the “concentration of IGF-1 added that increased the amount of extracellular secretion of EPO” value ([2]; Step 2, ELISA, Day 8 cells (FIG. 5)) was at least 1 ng/mL.
